Measurements published in PubChem BioAssay (NCI).
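Tested at 5 concentrations; 48 h exposure; 96-well plates; endpoints linearly interpolated, else capped at highest concentration. At the TGI there is no net growth.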

Tests used:
Test in all cases: NCI tumour cell line growth inhibition, 48 h
UACC-62 melanoma = system: UACC-62 melanoma
T-47D breast = system: T-47D breast
786-0 renal = system: 786-0 renal
KM20L2 colon = system: KM20L2 colon
HOP-18 NSCLC = system: HOP-18 NSCLC
XF 498 CNS = system: XF 498 CNS
M19-MEL melanoma = system: M19-MEL melanoma
SNB-78 CNS = system: SNB-78 CNS
RXF-631 renal = system: RXF-631 renal
LXFL 529 NSCLC = system: LXFL 529 NSCLC
DMS 273 small cell lung = system: DMS 273 small cell lung
DMS 114 small cell lung = system: DMS 114 small cell lung
DLD-1 colon = system: DLD-1 colon

Structure (SMILES) | TGI (UACC-62 melanoma) [µM] | TGI (T-47D breast) [µM] | TGI (786-0 renal) [µM] | also measured
Cc1cccc(N(CCC#N)S(=O)(=O)c2ccccc2)c1 | > 100 | > 100 | > 100 | 
COc1ccc(CNc2nc3ccc(C(F)(F)F)cc3nc2-c2ccccc2)cc1OC | > 100 |  |  | TGI (KM20L2 colon): > 100 µM; TGI (HOP-18 NSCLC): > 100 µM; TGI (XF 498 CNS): > 100 µM; TGI (M19-MEL melanoma): > 100 µM; TGI (SNB-78 CNS): > 100 µM; TGI (RXF-631 renal): > 100 µM; TGI (LXFL 529 NSCLC): > 100 µM; TGI (DMS 273 small cell lung): > 100 µM
CCOc1ccc(N=C/C=C(\Cl)c2ccc3ccccc3c2)cc1 | 31 | 22.3 | 26.7 | 
CCOC(=O)c1cnc2[nH]ccn2c1=O | > 10 | > 10 | > 10 | 
COc1cc2c(cc1OC)C(=O)/C(=C/c1cc(C)c(O)c(C)c1)C2 | > 100 | > 100 |  | 
CN(C)c1ccc(/C(Br)=C2\OC(=O)c3ccccc32)cc1 | > 100 | > 100 | > 100 | 
O=C(CCc1ccc(O)cc1)c1c(O)cc(O)cc1OC1OC(CO)C(O)C(O)C1O (configuration not stated) | > 100 | > 100 | > 100 | 
C=CC/C(C(=O)OC)=C(/C(=O)OC)N(CCC)CCC | > 100 | > 100 | > 100 | 
N#CC(C#N)=C1CCCS(=O)(=O)c2ccccc21 | > 100 | > 100 | > 100 | 
CC(=O)/C(=C/n1c(=S)sc2ccccc21)C(=O)Nc1ccccc1C | > 100 | > 100 | > 100 | 
c1ccc2c(c1)CCCN1CCc3ccccc3C21 (configuration not stated) | > 100 | > 100 | > 100 | 
Cc1cc(C)c2c(n1)S(=O)(=O)N(CCCN1CCN(c3cccc(C(F)(F)F)c3)CC1)/C(=C(\O)c1ccc(Cl)cc1)C2=O | 18.3 | 38.9 | 15.4 | 
Cc1nc2cc(C(F)(F)F)ccc2[nH]c1=O | > 100 | > 100 | > 100 | 
CC1=CC(=O)N(n2c(C)n[nH]c2=O)C1=O | > 100 | > 100 | > 100 | 
O=c1c2cc(I)ccc2[nH]c(=S)n1Cc1ccccc1 | > 100 | > 100 | 63 | 
N#Cc1c2c(c(Nc3ccc(F)cc3)n3c1nc1ccccc13)CCC2 | 25.1 | 24 | 3.25 | 
O=c1nc2c(c(-c3cccc(Cl)c3)[nH]1)COC/C2=C\c1cccc(Cl)c1 | > 100 | > 100 | > 100 | 
CCOC(=O)C(=O)N1C(C)=C(C(=O)OCC)CC(C(=O)OCC)=C1C | > 100 | > 100 | > 100 | 
O=C1N[C@@H]2c3c(csc3Br)C(=O)[C@@H]2O1 | > 100 | 99 | > 100 | 

Structure (SMILES) | TGI (UACC-62 melanoma) [µM] | TGI (T-47D breast) [µM] | TGI (786-0 renal) [µM] | also measured
Cc1cccc(C[C@@]2(SCc3ccccc3)C(C)(C)[C@@H]3CC[C@@]2(C)C3)n1 | 35.5 | 24.9 | 35.5 | 
O=C1C(Cl)N(c2ccccc2)C1c1c[nH]c2ccccc12 (configuration not stated) | > 100 |  |  | TGI (DMS 114 small cell lung): > 100 µM; TGI (KM20L2 colon): > 100 µM; TGI (XF 498 CNS): > 100 µM; TGI (M19-MEL melanoma): > 100 µM; TGI (LXFL 529 NSCLC): > 100 µM
O=[N+]([O-])C(=C(Sc1ccccc1)Sc1ccccc1)C(Cl)=C(Cl)Cl | 1.94 | 1.14 | 0.188 | 
O=C1/C(=C/c2ccc([N+](=O)[O-])cc2)CNC/C1=C\c1ccc([N+](=O)[O-])cc1 | 29.5 | > 81.3 | 3.18 | 
Cc1nc2ccc([N+](=O)[O-])cc2c(=O)n1C(=S)Nc1cccc(Cl)c1 | 29.1 | 69.6 | 78 | 
COC(=O)C1CC(C=[N+](C)C)=C(SC)N1 (configuration not stated) | > 100 | > 100 | > 100 | 
O=C1/C(=C/c2ccc(F)cc2)CNC/C1=C\c1ccc(F)cc1 |  | 20.3 | 1.45 | 
O=C(O)CNC(=O)c1ccc([As](=O)(O)O)cc1 | > 100 | > 100 | > 100 | 
COC1C=CC23c4cc5c(cc4C(O)OC2CN(C)C3C1)OCO5 (configuration not stated) | 58.8 |  | 11 | TGI (DMS 114 small cell lung): 6.05 µM; TGI (KM20L2 colon): 9.1 µM; TGI (M19-MEL melanoma): 8.82 µM; TGI (LXFL 529 NSCLC): 9.55 µM; TGI (DMS 273 small cell lung): 6.87 µM
CC(=O)CC(=O)c1cc2c(=O)oc(C)cc2oc1=O | > 37.5 |  | > 37.5 | 
Cc1cc2cccc(Cl)c2nc1C(=O)c1ccccc1 | > 100 |  |  | TGI (DMS 114 small cell lung): > 100 µM; TGI (KM20L2 colon): > 100 µM; TGI (HOP-18 NSCLC): > 100 µM; TGI (XF 498 CNS): > 100 µM; TGI (M19-MEL melanoma): > 100 µM; TGI (SNB-78 CNS): > 100 µM; TGI (DLD-1 colon): > 100 µM; TGI (RXF-631 renal): > 100 µM; TGI (LXFL 529 NSCLC): > 100 µM; TGI (DMS 273 small cell lung): > 100 µM
C(=Nc1ccc(-c2nc3ccccc3s2)cc1)c1ccco1 | > 100 | > 100 | > 100 | 
Cc1ccc(C2=Nc3c(c(C)nn3-c3ccccc3)N=C(C(=O)O)C2)cc1 | > 10 | > 10 | > 10 | 
O=C1OC[C@@H]2Cc3c([nH]c4ccccc34)[C@@H](c3ccc(O)cc3)N12 | 69.8 | > 100 | > 100 | 
O=C(O)c1ccc(NS(=O)(=O)Cc2ccccc2)cc1 | > 100 | > 100 | > 100 | 
CCOC(=O)C1C(=O)CC(O)(c2ccccc2)C(C(=O)OCC)C1c1ccc(OC)cc1 (configuration not stated) | > 100 | > 100 | > 59.2 | 
COc1cccc(C2c3cc4c(cc3OC(N3CCCC3)C2C)OCO4)c1OC (configuration not stated) | 34.5 | 39.3 | 18.8 | 
C=CCCCC12CCCc3cccc(c31)NC2=O (configuration not stated) | 31.3 |  |  | TGI (DMS 114 small cell lung): 33 µM; TGI (KM20L2 colon): 47 µM; TGI (XF 498 CNS): 41.7 µM; TGI (DLD-1 colon): 42.4 µM; TGI (RXF-631 renal): 55.6 µM
